The numbers were not newly measured in patent US12280058B2, “Gasotransmitter metabolites and Alzheimer's disease” (Board of Supervisors of Louisiana State University and …, priority 2020, dated 2025), which cites them from elsewhere.

Molecules are shown by their SMILES. A value given as a limit tells only on which side of the number the result lay.

The target in one data set is CSE (Homo sapiens, UniProt P32929). Particulars: read-out: IC50 (CSE inhibitor).
In another data set the test system is infarct. Particulars: administration.

Chain of CSE (P32929 whole entry, species assumed): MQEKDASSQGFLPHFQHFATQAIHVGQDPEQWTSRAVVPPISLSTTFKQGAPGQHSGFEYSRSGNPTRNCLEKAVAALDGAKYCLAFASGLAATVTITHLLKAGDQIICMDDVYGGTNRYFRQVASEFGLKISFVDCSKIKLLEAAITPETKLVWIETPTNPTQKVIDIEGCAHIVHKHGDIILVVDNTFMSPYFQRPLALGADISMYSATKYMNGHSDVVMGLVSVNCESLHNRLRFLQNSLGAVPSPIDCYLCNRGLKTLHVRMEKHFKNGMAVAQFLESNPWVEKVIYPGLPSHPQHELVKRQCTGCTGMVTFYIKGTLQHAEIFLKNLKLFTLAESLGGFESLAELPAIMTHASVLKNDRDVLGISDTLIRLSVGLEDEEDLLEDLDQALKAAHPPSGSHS

`C#CC[C@H](N)C(=O)O`: the half-inhibitory concentration (IC50) at CSE was 40 µM.
`NCCO/C=C/[C@H](N)C(=O)O` [L-aminoethoxyvinylglycine]: the concentration for half-maximal inhibition (IC50) at CSE is under 1 µM.
Take `CCOc1ccc2nc(Sc3nc(Nc4cccc([N+](=O)[O-])c4)nc(Nc4cc(OC)ccc4OC)n3)sc2c1` [compound 1157172, 2-[(4-(2,5-dimethoxyanilino)-6-(3-nitroanilino)-1,3,5-triazin-2-yl)sulfanyl]-6-ethoxy-1,3-benzothiazole]: at CSE, the concentration for half-maximal inhibition (IC50) was 30 µM.
With `S` [sodium hydrosulfide], the “infarct volume / size of infarct” value with infarct is “increased infarct volume”.

As usually defined, the IC50 is the midpoint of a concentration-inhibition curve.
